29 molecules from patent publication US7795278B2 (sanofi-aventis Deutschland GmbH, priority 2004, dated 2010) can be followed below.

By IC50 is commonly meant the concentration needed to halve the response being measured.

Chain of recombinantly expressed human PARP-1 enzyme (P09874 whole entry): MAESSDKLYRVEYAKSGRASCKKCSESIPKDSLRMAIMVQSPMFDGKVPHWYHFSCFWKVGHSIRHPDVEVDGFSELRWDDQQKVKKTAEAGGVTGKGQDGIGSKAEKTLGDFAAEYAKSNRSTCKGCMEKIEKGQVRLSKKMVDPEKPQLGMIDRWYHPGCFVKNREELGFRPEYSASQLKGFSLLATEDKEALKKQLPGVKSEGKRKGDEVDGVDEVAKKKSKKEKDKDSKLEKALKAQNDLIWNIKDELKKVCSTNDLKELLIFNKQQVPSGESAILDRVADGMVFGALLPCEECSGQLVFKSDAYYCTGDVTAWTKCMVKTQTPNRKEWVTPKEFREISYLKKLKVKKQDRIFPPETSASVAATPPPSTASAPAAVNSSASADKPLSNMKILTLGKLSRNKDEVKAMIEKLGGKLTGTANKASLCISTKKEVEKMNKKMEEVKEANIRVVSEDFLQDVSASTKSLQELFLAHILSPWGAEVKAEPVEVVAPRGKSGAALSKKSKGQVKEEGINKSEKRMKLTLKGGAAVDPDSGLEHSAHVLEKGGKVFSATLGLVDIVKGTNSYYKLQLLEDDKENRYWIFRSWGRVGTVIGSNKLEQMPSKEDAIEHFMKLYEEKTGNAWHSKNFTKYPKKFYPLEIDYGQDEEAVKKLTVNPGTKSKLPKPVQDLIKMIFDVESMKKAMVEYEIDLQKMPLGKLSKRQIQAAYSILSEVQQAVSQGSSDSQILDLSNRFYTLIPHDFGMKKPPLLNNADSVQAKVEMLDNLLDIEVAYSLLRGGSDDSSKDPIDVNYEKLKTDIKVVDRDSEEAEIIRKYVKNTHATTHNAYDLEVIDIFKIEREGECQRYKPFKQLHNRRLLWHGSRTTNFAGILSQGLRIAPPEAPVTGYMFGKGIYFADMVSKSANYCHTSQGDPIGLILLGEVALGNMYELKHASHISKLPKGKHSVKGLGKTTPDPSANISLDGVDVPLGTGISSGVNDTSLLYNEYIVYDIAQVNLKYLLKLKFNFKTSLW

For the assay, the target named is recombinantly expressed human PARP-1 enzyme (Homo sapiens, UniProt P09874). The experiment in a line: PARP enzyme assay (half-maximum inhibitor concentration). Particulars: DNA-activated PARP-1, 200 μM NAD, tritium-labeled NAD incorporation, room temperature, 1 hour, pH 8.0. The format is biochemical. The procedure:
Pharmacological Investigations PARP Enzyme Assay
The half-maximum inhibitor concentration is determined by incubating the substances to be tested with the DNA-activated, recombinantly expressed and purified PARP-1 enzyme. Specifically, various concentrations of the test substance are incubated in 50 μl of reaction solution, which contains 50 mM Tris, 5 mM MgCl2, 1 mM DTT, 200 μM NAD, 0.1 mCi/ml tritium-labeled NAD, 0.1 mg/ml DNA, 0.1 mg/ml histones, 2 μg/ml recombinantly expressed human PARP-1 enzyme, pH=8.0, at room temperature for 1 hour. The reaction is stopped by adding 150 μl of 20% trichloroacetic acid, and the radiolabeled protein constituents are precipitated. After incubation on ice for 10 minutes, the labeled, insoluble constituents are separated off through a glass fiber filter and, after washing with 20% trichloroacetic acid three times, the radioactivity incorporated by the PARP-1 enzyme is measured by radioluminescence.
IC-50 values were determined in this way for the following compounds: […]
Take `O=C(c1cccc(Nc2c[nH]c(=O)c3c2CCCC3)c1)N1CCN(CC2CC2)CC1` [Example 22, 4-[3-(4-Cyclopropylmethylpiperazine-1-carbonyl)phenylamino]-5,6,7,8-tetrahydro-2H-isoquinolin-1-one]: the IC50 is 330 nM.

Regarding `Cc1cnc(CNC(=O)c2cncc(-c3c[nH]c(=O)c4c3CCCC4)c2)cn1` [Example 39, N-(5-methylpyrazin-2-ylmethyl)-5-(1-oxo-1,2,5,6,7,8-hexahydroisoquinolin-4-yl)nicotinamide], the IC50 is 5890 nM.

As to `CN(Cc1cccc([N+](=O)[O-])c1)C(=O)c1cncc(-c2c[nH]c(=O)c3c2CCCC3)c1` [Example 32, N-methyl-N-(3-nitrobenzyl)-5-(1-oxo-1,2,5,6,7,8-hexahydroisoquinolin-4-yl)nicotinamide], the IC50 is 770 nM.

As to `O=c1[nH]cc(-c2ccc(CN3CCN(c4ncccn4)CC3)o2)c2c1CCCC2` [Example 56, 4-[5-(4-pyrimidin-2-ylpiperazin-1-ylmethyl)furan-2-yl]-5,6,7,8-tetrahydro-2H-isoquinolin-1-one], the IC50 turned out to be 1450 nM.

Take `CCCCNC(=O)c1cccc(Nc2c[nH]c(=O)c3c2CCCC3)c1` [Example 20, N-Butyl-3-(1-oxo-1,2,5,6,7,8-hexahydroisoquinolin-4-ylamino)benzamide]: the IC50 was found to be 1280 nM.

For the molecule `O=c1[nH]cc(-c2ccc(CN3CCC(O)C3)o2)c2c1CCCC2` (centres unmarked) [Example 63, 4-[5-(3-hydroxypyrrolidin-1-ylmethyl)furan-2-yl]-5,6,7,8-tetrahydro-2H-isoquinolin-1-one], the half-maximal inhibitory concentration (IC50) was 240 nM.

For `CCN1CCCC1CNC(=O)c1cncc(-c2c[nH]c(=O)c3c2CCCC3)c1` (centres unmarked) [Example 49, N-(1-ethylpyrrolidin-2-ylmethyl)-5-(1-oxo-1,2,5,6,7,8-hexahydroisoquinolin-4-yl)nicotinamide], the IC50 turned out to be 5110 nM.

On to `O=C1OCc2ccc(Nc3c[nH]c(=O)c4c3CCCC4)cc21` [Example 10], for which the IC50 was found to be 1430 nM.

As to `CC(=O)Nc1cccc(Nc2c(C)[nH]c(=O)c3c2CCCC3)c1` [Example 17, N-[3-(3-methyl-1-oxo-1,2,5,6,7,8-hexahydroisoquinolin-4-ylamino)-phenyl]acetamide], the IC50 turned out to be 140 nM.

As to `COc1cccc(CNC(=O)c2cncc(-c3c[nH]c(=O)c4c3CCCC4)c2)c1` [Example 45, N-(3-methoxybenzyl)-5-(1-oxo-1,2,5,6,7,8-hexahydroisoquinolin-4-yl)nicotinamide], the IC50 worked out at 1700 nM.

`Cc1[nH]c(=O)c2c(c1-c1cccnc1)CCCC2` [Example 19, 3-methyl-4-pyridin-3-yl-5,6,7,8-tetrahydro-2H-isoquinolin-1-one]: the IC50 was determined as 740 nM.

In the case of `O=C(c1cncc(-c2c[nH]c(=O)c3c2CCCC3)c1)N1CCC(c2ccncc2)C1` (centres unmarked) [Example 36, 4-[5-(3-pyridin-4-ylpyrrolidine-1-carbonyl)pyridin-3-yl]-5,6,7,8-tetrahydro-2H-isoquinolin-1-one], the IC50 stood at 420 nM.

Regarding `CS(=O)(=O)c1ccc(CNC(=O)c2cncc(-c3c[nH]c(=O)c4c3CCCC4)c2)cc1` [Example 42, N-(4-methanesulfonylbenzyl)-5-(1-oxo-1,2,5,6,7,8-hexahydroisoquinolin-4-yl)nicotinamide], the IC50 turned out to be 1030 nM.

On to “4-[5-({[4-(4-fluorophenyl)-piperazin-1-yl]-5,6,7,8-tetrahydro-2H-isoquinolin-1-one [Example 71]”, for which the IC50 turned out to be 1240 nM.

Turning to `O=c1[nH]cc(-c2ccc(CNCc3nc4ccccc4[nH]3)o2)c2c1CCCC2` [Example 68, 4-(5-{[(1H-benzimidazol-2-ylmethyl)amino]methyl}furan-2-yl)-5,6,7,8-tetrahydro-2H-isoquinolin-1-one], the IC50 is 340 nM.

For `O=C(NCc1ccc(-c2c[nH]c(=O)c3c2CCCC3)o1)c1cccnc1` [Example 84, N-[5-(1-oxo-1,2,5,6,7,8-hexahydroisoquinolin-4-yl)furan-2-ylmethyl]nicotinamide], the IC50 amounted to 790 nM.

Take `Cc1[nH]c(=O)c2c(c1Nc1cccc(S(C)(=O)=O)c1)CCCC2` [Example 7, 4-(3-methanesulfonylphenyl-amino)-3-methyl-5,6,7,8-tetrahydro-2H-isoquinolin-1-one]: the IC50 is 300 nM.

With `O=C(NCCNc1ncccn1)c1cncc(-c2c[nH]c(=O)c3c2CCCC3)c1` [Example 33, 5-(1-oxo-1,2,5,6,7,8-hexahydroisoquinolin-4-yl)-N-[2-(pyrimidin-2-ylamino)ethyl]nicotinamide], the IC50 turned out to be 3690 nM.

As to `CC(=O)c1cccc(Nc2c[nH]c(=O)c3c2CCCC3)c1` [Example 15, 4-(3-acetylphenylamino)-5,6,7,8-tetrahydro-2H-isoquinolin-1-one], the IC50 was found to be 690 nM.

For `O=c1[nH]cc(Nc2cccc(O)c2)c2c1CCCC2` [Example 1, 4-(3-hydroxyphenylamino)-5,6,7,8-tetrahydro-2H-isoquinolin-1-one], the IC50 worked out at 1310 nM.

With `O=C(NCc1ccncc1)c1cncc(-c2c[nH]c(=O)c3c2CCCC3)c1` [Example 48, 5-(1-oxo-1,2,5,6,7,8-hexahydroisoquinolin-4-yl)-N-pyridin-4-ylmethylnicotinamide], the IC50 came to 3070 nM.

With `O=C(NCc1ccc([N+](=O)[O-])cc1)c1cncc(-c2c[nH]c(=O)c3c2CCCC3)c1` [Example 28, N-(4-nitrobenzyl)-5-(1-oxo-1,2,5,6,7,8-hexahydroisoquinolin-4-yl)nicotinamide], the IC50 was 400 nM.

For `Cc1cc(CNC(=O)c2cncc(-c3c[nH]c(=O)c4c3CCCC4)c2)no1` [Example 34, N-(5-methylisoxazol-3-ylmethyl)-5-(1-oxo-1,2,5,6,7,8-hexahydroisoquinolin-4-yl)nicotinamide], the IC50 turned out to be 3480 nM.

For the molecule `COc1ccc(C(=O)NCc2ccc(-c3c[nH]c(=O)c4c3CCCC4)o2)cc1` [Example 83, 4-methoxy-N-[5-(1-oxo-1,2,5,6,7,8-hexahydroisoquinolin-4-yl)furan-2-ylmethyl]benzamide], the IC50 came out at 1250 nM.

As for `O=C(NCCc1ccncc1)c1cncc(-c2c[nH]c(=O)c3c2CCCC3)c1` [Example 43, 5-(1-oxo-1,2,5,6,7,8-hexahydroisoquinolin-4-yl)-N-(2-pyridin-4-ylethyl)nicotinamide], the IC50 is 820 nM.

As to `CS(=O)(=O)c1cccc(Nc2c[nH]c(=O)c3c2CCCC3)c1` [Example 6, 4-(3-methanesulfonylphenyl-amino)-5,6,7,8-tetrahydro-2H-isoquinolin-1-one], the IC50 was found to be 800 nM.

For `O=c1[nH]cc(-c2ccc(CNC3Cc4ccccc4C3)o2)c2c1CCCC2` [Example 70, 4-[5-(indan-2-ylaminomethyl)-furan-2-yl]-5,6,7,8-tetrahydro-2H-isoquinolin-1-one], the IC50 amounted to 310 nM.

With `CC(=O)Nc1cccc(Nc2c[nH]c(=O)c3c2CCCC3)c1` [Example 5, N-[3-(1-oxo-1,2,5,6,7,8-hexahydroisoquinolin-4-ylamino)-phenyl]acetamide], the IC50 stood at 390 nM.

As for `O=c1[nH]cc(-c2ccc(CNCc3cccnc3)o2)c2c1CCCC2` [Example 59, 4-(5-{[(pyridin-3-ylmethyl)amino]-methyl}furan-2-yl)-5,6,7,8-tetrahydro-2H-isoquinolin-1-one], the IC50 was determined as 990 nM.
